Read-outs that look alike come from different tables or passages of the source.
Tests used:
[1] = test system: IL-23-stimulated STAT-dependent luciferase reporter in Kit225 T cells; test: Kit225 T cell assay, IL-23 stimulated STAT-dependent luciferase reporter; type: cell-based, human
Method: (§1) Kit225 T cells with a stably-integrated STAT-dependent luciferase reporter were plated in RPMI (Gibco) containing 10% heat-inactivated FBS (Gibco) and 100 U/mL PenStrep (Gibco). The cells were then stimulated with either 20 ng/mL human recombinant IL-23 or 200 U/mL human recombinant IFNα (PBL InterferonSource) for 5-6 hours. Luciferase expression was measured using the STEADY-GLO® Luciferase Assay System (Promega) according to the manufacturer's instructions.

[2] = test system: IFNα-stimulated STAT-dependent luciferase reporter in Kit225 T cells; test: Kit225 T cell assay, IFNα stimulated STAT-dependent luciferase reporter; type: cell-based, human
Method: as §1

[3] = Kit225 T cells, 20 ng/mL human recombinant IL-23, 5-6 hours, luciferase, read-out: IL23 (Kit225 T Cell Inhibition Data)
[4] = Kit225 T cells, 200 U/mL human recombinant IFNα, 5-6 hours, luciferase, read-out: IFNα (Kit225 T Cell Inhibition Data)

| SMILES | IC50 [1, 3] [nM] | IC50 [2, 4] [nM] | IC50 ([1]; Homo sapiens, KIT225, read-out: IL23 (Kit225 T Cell Inhibition Data)) [nM] | IC50 ([2]; Homo sapiens, KIT225, read-out: IFNα (Kit225 T Cell Inhibition Data)) [nM] |
| --- | --- | --- | --- | --- |
| CNC(=O)c1cnc(Nc2ccc(C)nn2)cc1Nc1ccccc1S(C)(=O)=O [Example 414] | 650 | 280 |  |  |
| CNC(=O)c1cnc(Nc2cccc(C)n2)cc1Nc1ccc(Cl)cc1OC [Example 109] | 948 | 210 |  |  |
| CNC(=O)c1cnc(Nc2ccccn2)cc1Nc1ccc(S(C)(=O)=O)cc1OC [Example 45] | 4260 | 1250 |  |  |
| CNC(=O)c1cnc(Nc2ccc(F)cn2)cc1Nc1ccccc1S(N)(=O)=O [Example 429] | 250 | 150 |  |  |
| CNC(=O)c1cnc(Nc2ccc3ccccc3n2)cc1NC1CCC(F)CC1 (stereo not shown) [Example 287] | 7940 | 10200 |  |  |
| CNC(=O)c1cnc(Nc2ccc(F)cn2)cc1Nc1ccc(C(=O)N(C)C)cc1S(C)(=O)=O [Example 306] | 2530 | 560 |  |  |
| CNC(=O)c1cnc(Nc2ccc(F)cn2)cc1Nc1cc(F)ccc1F [Example 64] | 5950 | 9030 |  |  |
| CNC(=O)c1cnc(Nc2cc(OC)ccn2)cc1Nc1cc(F)cc(F)c1OC [Example 169] | 352 | 440 |  |  |
| CNC(=O)c1cnc(Nc2ccc(F)cn2)cc1Nc1ccc(F)cc1SC [Example 207] | 3300 | 2040 |  |  |
| CNC(=O)c1ccnc(Nc2cc(Nc3ccc(F)cc3OC)c(C(=O)NC)cn2)c1 [Example 275] | 1040 | 680 |  |  |
| CNC(=O)c1cnc(Nc2ccc(F)cn2)cc1Nc1cccc(F)c1C(N)=O [Example 175] | 434 | 500 |  |  |
| CCc1ccc(Nc2cc(Nc3ccc(N4CCOCC4)cn3)ncc2C(=O)NC)cc1 [Example 213] | 1870 | 1310 |  |  |
| CNC(=O)c1cnc(Nc2ccc(N3CCOCC3)cn2)cc1Nc1ccc(Br)cc1OC [Example 221] | 456 | 150 |  |  |
| CCOc1cc(F)ccc1Nc1cc(Nc2ccc(N3CCOCC3)cn2)ncc1C(=O)NC [Example 232] | 3040 | 2090 |  |  |
| CNC(=O)c1cnc(Nc2ccc(F)cn2)cc1Nc1ccc(C)cc1 [Example 193] | 3670 | 3200 |  |  |
| CNC(=O)c1cnc(Nc2ccc(F)cn2)cc1Nc1ccc(OC)cc1 [Example 195] | 3130 | 3520 |  |  |

| SMILES | IC50 [1, 3] [nM] | IC50 [2, 4] [nM] | IC50 ([1]; Homo sapiens, KIT225, read-out: IL23 (Kit225 T Cell Inhibition Data)) [nM] | IC50 ([2]; Homo sapiens, KIT225, read-out: IFNα (Kit225 T Cell Inhibition Data)) [nM] |
| --- | --- | --- | --- | --- |
| CNC(=O)c1cnc(Nc2cccc(C(F)(F)F)n2)cc1Nc1ccccc1C(N)=O [Example 95] | 960 | 680 |  |  |
| CNC(=O)c1cnc(Nc2ccc(F)cn2)cc1Nc1cccc(C)c1 [Example 197] | 11900 | 5830 |  |  |
| CNC(=O)c1cnc(Nc2ccc(F)cn2)cc1Nc1ccc(S(C)(=O)=O)cc1 [Example 201] | 2670 | 6970 |  |  |
| CNC(=O)c1cnc(Nc2ccc(F)cn2)cc1Nc1ccc(C(N)=O)cc1C [Example 234] | 2800 | 1870 |  |  |
| CNC(=O)c1cnc(Nc2ccccn2)cc1Nc1cccc(F)c1S(C)(=O)=O [Example 46] | 2980 | 1390 |  |  |
| CNC(=O)c1cnc(Nc2ccc(F)cn2)cc1Nc1ccc(C(N)=O)cc1 [Example 242] | 1740 | 2710 |  |  |
| CNC(=O)c1cnc(Nc2cc(C(=O)N3CCOCC3)ccn2)cc1Nc1cc(F)cc(F)c1OC [Example 265] | 319 | 210 |  |  |
| CNC(=O)c1cnc(Nc2cc(COC)nc(C)n2)cc1Nc1ccccc1S(C)(=O)=O [Example 418] | 350 | 210 |  |  |
| CNC(=O)c1cnc(Nc2ccc(F)cn2)cc1Nc1ccc(C(N)=O)cc1OC [Example 233] | 1370 | 870 |  |  |
| CNC(=O)c1cnc(Nc2cc(C)c(F)cn2)cc1Nc1ccc(C(=O)N2CC(F)(F)C2)cc1S(C)(=O)=O [Example 413] | 470 | 460 |  |  |
| CNC(=O)c1cnc(Nc2cc(C)c(F)cn2)cc1Nc1cccc(C(=O)NCCC(C)C)c1OC [Example 338] | 400 | 110 |  |  |
| CNC(=O)c1cnc(Nc2cc(C#N)ccn2)cc1Nc1ccccc1C(N)=O [Example 84] | 369 | 350 |  |  |
| CNC(=O)c1cnc(Nc2ccc(F)cn2)cc1Nc1ccccc1NS(C)(=O)=O [Example 279] | 476 | 140 |  |  |
| CNC(=O)c1cnc(Nc2ccc(C(=O)N3CCOCC3)cn2)cc1Nc1ccc(Cl)cc1OC [Example 263] | 5060 | 3600 |  |  |
| CNC(=O)c1cnc(Nc2cc(C)c(F)cn2)cc1Nc1cccc(-c2ncnn2C)c1OC [Example 385] |  |  | 70 | 20 |
| CNC(=O)c1cnc(Nc2ccc(N3CCOCC3)cn2)cc1Nc1cc(F)cc(F)c1OC [Example 406] | 250 | 100 |  |  |

Further lines, with some results ahead:

| IC50 [1, 3] [nM] | IC50 [2, 4] [nM] | SMILES | IC50 ([1]; Homo sapiens, KIT225, read-out: IL23 (Kit225 T Cell Inhibition Data)) [nM] | IC50 ([2]; Homo sapiens, KIT225, read-out: IFNα (Kit225 T Cell Inhibition Data)) [nM] |
| --- | --- | --- | --- | --- |
| 60 | 20 | CNC(=O)c1cnc(Nc2cc(C)nc(C)n2)cc1Nc1cccc(-c2nnc(C)o2)c1OC [Example 361] |  |  |
| 120 | 90 | CNC(=O)c1cnc(Nc2cc(C)c(F)cn2)cc1Nc1cccc(C(=O)NCCC(C)(C)O)c1OC [Example 333] |  |  |
| 110 | 80 | CNC(=O)c1cnc(Nc2cc(C)c(F)cn2)cc1Nc1cccc(C(=O)NCCc2ccccc2)c1OC [Example 337] |  |  |
| 50 | 30 | CCCNC(=O)c1cccc(Nc2cc(Nc3cc(C)c(F)cn3)ncc2C(=O)NC)c1OC [Example 339] |  |  |
| 61.4 | 70 | CNC(=O)c1cnc(Nc2ccccn2)cc1Nc1ccccc1S(C)(=O)=O [Example 3] |  |  |
| 158 | 120 | CNC(=O)c1cnc(Nc2cc(C)ccn2)cc1Nc1ccc(F)c(F)c1OC [Example 100] |  |  |
| 20 | 30 | CNC(=O)c1cnc(Nc2cc(C)nc(C)n2)cc1Nc1cccc(-c2nc(C)nn2C)c1OC [Example 367] |  |  |
| 120 | 170 | CNC(=O)c1cnc(Nc2cc(C)nc(C)n2)cc1Nc1cccc(-c2ncn(CC(C)(C)O)n2)c1OC [Example 384] |  |  |
| 157 | 90 | CNC(=O)c1cnc(Nc2cc(C#N)ccn2)cc1Nc1ccc(F)cc1OCF [Example 166] |  |  |
| 135 | 110 | CNC(=O)c1cnc(Nc2cc(C(F)(F)F)ccn2)cc1Nc1ccccc1S(C)(=O)=O [Example 14] |  |  |
| 20 | 8.61 | CNC(=O)c1cnc(Nc2cc(C)nc(C)n2)cc1Nc1cccc(F)c1OC [Example 410] |  |  |
| 40 | 20 | CNC(=O)c1cnc(Nc2cc(C)c(F)cn2)cc1Nc1cccc(C(=O)NCC(F)(F)F)c1OC [Example 346] |  |  |
| 109 | 50 | CNC(=O)c1cnc(Nc2ccccn2)cc1Nc1ccc(Cl)cc1S(C)(=O)=O [Example 12] |  |  |
| 64.9 | 50 | CNC(=O)c1cnc(Nc2ccc(C)cn2)cc1Nc1ccccc1S(C)(=O)=O [Example 22] |  |  |
| 90 | 80 | CNC(=O)c1cnc(Nc2cnc(C)c(C)n2)cc1Nc1ccccc1S(C)(=O)=O [Example 416] |  |  |
| 119 | 50 | CNC(=O)c1cnc(Nc2cccc(OC)n2)cc1Nc1cc(F)cc(F)c1OC [Example 130] |  |  |
| 115 | 90 | CNC(=O)c1cnc(Nc2cc(F)ccn2)cc1Nc1ccccc1S(C)(=O)=O [Example 23] |  |  |
| 220 | 70 | CNC(=O)c1cnc(Nc2cc(C)c(F)cn2)cc1Nc1cccc(C(=O)NCC2CC2)c1OC [Example 324] |  |  |

Source: patent US9315494B2, “Alkyl-amide-substituted pyridyl compounds useful as modulators of IL-12, IL-23 and/or IFNα responses” (Bristol-Myers Squibb Company, priority 2012, dated 2016)
